These results are taken from BindingDB's records for patent US10377742 (Rigel Pharmaceuticals, 2019).

A value given as a limit tells only on which side of the number the result lay.

The target in this assay is 5'-AMP-activated protein kinase catalytic subunit alpha-2 (Homo sapiens, UniProt P54646). The assay can be described thus: enzyme-linked immunosorbent assay. On the procedure:
Compounds were assayed for their ability to activate AMPK using an enzyme-linked immunosorbent assay. Reagents and procedures for measuring AMPK activation are well known and kits for AMPK activation assays are commercially available.

5'-AMP-activated protein kinase catalytic subunit alpha-2, sequence (P54646 whole entry): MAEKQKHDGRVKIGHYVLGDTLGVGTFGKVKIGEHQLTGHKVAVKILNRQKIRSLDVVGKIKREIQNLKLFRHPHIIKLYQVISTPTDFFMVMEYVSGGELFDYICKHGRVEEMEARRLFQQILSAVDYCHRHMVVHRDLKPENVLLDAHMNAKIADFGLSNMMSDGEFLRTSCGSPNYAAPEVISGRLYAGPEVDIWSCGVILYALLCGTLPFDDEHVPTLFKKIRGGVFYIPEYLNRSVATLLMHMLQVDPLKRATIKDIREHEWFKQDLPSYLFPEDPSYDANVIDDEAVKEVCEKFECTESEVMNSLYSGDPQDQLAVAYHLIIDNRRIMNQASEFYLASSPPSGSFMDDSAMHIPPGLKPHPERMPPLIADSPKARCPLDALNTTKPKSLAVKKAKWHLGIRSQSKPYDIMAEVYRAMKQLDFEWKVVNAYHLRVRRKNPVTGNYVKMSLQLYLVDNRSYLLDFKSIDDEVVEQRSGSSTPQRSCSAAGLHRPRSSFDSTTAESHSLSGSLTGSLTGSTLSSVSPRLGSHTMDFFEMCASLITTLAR

Take `O=C(Nc1ccccc1-c1ccccc1)c1ccc(C(=O)N2CCN(Cc3ccc(F)cc3)CC2)cn1` [US10377742, Compound 19]: the EC50 is > 1000 nM.
In the case of `O=C(Nc1ccc(-c2ccc([N+](=O)[O-])cc2)cc1)c1ccc(C(=O)N2CCN(Cc3ccc(F)cc3)CC2)cn1` [US10377742, Compound 20] it was > 1000 nM.
